Experimental data reported in US6399318B1, “Immunoassay for phthalic acid esters” (Otsuka Pharmaceutical Co., Ltd., priority 2000, dated 2002).
Converted amounts (≈) assume the structure as drawn. Counter-ions that a name gives are not always drawn.

Tests used:
Type in all cases: binding, rabbit
[1] = tested on: Antiserum RY778 (anti-phthalic acid ester antibody); test: ELISA for diethyl phthalate and cross-reactivity test; settings: for Cross-reactivity: relative to diethyl phthalate (calculated as 100%) at B/B0=50, antiserum RY778; for IC50: competitive ELISA, antiserum RY778, biotinylated diethyl phthalate derivative as labeled antigen
Description: An ELISA system of the present invention for diethyl phthalate was designed in the following manner.
Diethyl phthalate was diluted as follows. A solution (857 μg/mL) of 12 mg of diethyl phthalate in 15.7% DMSO was 10-fold diluted with PBS buffer to give a standard solution (85.7 μg/ml). Five-fold dilution of the standard solution was repeated to give solutions of various concentrations (17.1 μg/ml, 3.4 μg/ml, 0.69 μg/ml, 0.137 μg/ml, 0.027 μg/ml and 0.005 μg/ml). These solutions were used as diluted standard antigen solutions.
Biotin-Arg-Lys-aminocapronyl-4-amino-diethyl phthalate synthesized in Example 1 (4) was diluted to 2 ng/ml with PBS buffer and used as a labeled antigen solution.
Antiserum RY778 (anti-phthalic acid ester antibody) synthesized in Example 4 was diluted 10,000-fold with PBS buffer (containing 0.1% BSA and 0.1% Tween 20) and used as an antibody solution.
Goat anti-rabbit IgG (Jackson Immuno Research) was diluted 200-fold with 0.1M phosphate buffer (pH8.0), and 100 μl of the diluted IgG was pipetted into each well of a 96-well microtiter plate (Maxi Sorp, Nunc). The plate was allowed to stand at 25° C. for 18 to 20 hours and then the supernatant was removed. Subsequently, 340 μl of Block Ace (Dainippon Pharmaceutical Co., Ltd.) was pipetted into each well and the plate was allowed to stand at 25° C. for 18 to 20 hours whereby blocking was completed.
After the plate was washed with a wash solution (0.15M NaCl containing 0.1% Tween 20) 5 times, 50 μl of a diluted standard antigen solution or sample, 50 μl of the labeled antigen solution and 100 μl of the antibody solution were added to each well. The culture was incubated at 4° C. for 18 to 20 hours. The plate was washed 3 times with 0.3 ml of the wash solution, and then 0.1 ml of a streptavidin-horseradish peroxidase conjugate (×2500) was added. After incubation at room temperature for 1.5 hours, the plate was washed with 0.3 ml of the wash solution 4 times and then a tetramethyl benzidine-containing colorant (0.1 ml, product of Sigma) was added. After 30 minutes of coloring, 2N sulfuric acid was added to stop the reaction. Absorbance at 450 nm was measured.
A standard curve for diethyl phthalate was obtained from the results of the diluted standard antigen solutions (FIG. 1). In FIG. 1, the ordinate denotes absorbance (at 450 nm) and the abscissa denotes standard antigen concentration (ng/ml).
The cross-reactivity of the antibody of the invention with diethyl phthalate and structurally similar compounds was tested using the ELISA system described in Example 5.
Cross-reactivity (%) is defined as the molar concentration of each test antigen, relative to the concentration of diethyl phthalate (calculated as 100%), at B/B0=50.

antiserum RY849 = test: ELISA for di-n-butyl phthalate and cross-reactivity test; settings: ELISA system for di-n-butyl phthalate
Description: An ELISA system of the invention for di-n-butyl phthalate was designed in a manner similar to that of Example 5, using di-n-butyl phthalate (product of Wako Pure Chemical Industries, Inc.) as a standard antigen, using biotin-Arg-Lys-aminocapronyl-4-amino-di-n-butyl phthalate of Example 2 (2-4) as a labeled antigen and using antiserum RY849 (10,000-fold diluted) as an antiserum. The antiserum RY849 was prepared as in Example 4, but the aminocapronyl-4-amino-di-n-butyl phthalate of Example 2 (2-3) was used in place of aminocapronyl-4-amino-diethyl phthalate of Example 4.
A standard curve for di-n-butyl phthalate was obtained (FIG. 3).
The cross-reactivity of the antibody of the invention with di-n-butyl phthalate and structurally similar substances was determined using the ELISA system described in Example 10.

antiserum RY850 = test: ELISA for benzyl n-butyl phthalate and cross-reactivity test; settings: ELISA system for benzyl n-butyl phthalate
Description: An ELISA system of the invention for benzyl n-butyl phthalate was designed in a manner similar to that of Example 5, using benzyl n-butyl phthalate (product of Kanto Chemical Co., Inc.) as a standard antigen, using biotin-Arg-Lys-aminocapronyl-4-(or 5-)amino-benzyl n-butyl phthalate of Example 2 (2-6) as a labeled antigen and using antiserum RY850 (10,000-fold diluted) as an antiserum. The antiserum RY850 was prepared as in Example 4, but the aminocapronyl-4-(or 5-)amino-benzyl n-butyl phthalate of Example 2 (2-5) was used in place of aminocapronyl-4-amino-diethyl phthalate.
A standard curve for benzyl n-butyl phthalate was obtained (FIG. 2). In FIG. 2, the ordinate denotes absorbance (at 492 nm) and the abscissa denotes standard antigen concentration (ng/ml).
The cross-reactivity of the antibody of the invention with benzyl n-butyl phthalate and structurally similar compounds was determined using the ELISA system described in Example 8.

Molecule | Cross-reactivity [1] [%] | Cross-reactivity (antiserum RY849) [%] | IC50 [1] [µg/mL] | also measured
CCCCC(CC)COC(=O)c1ccccc1C(=O)OCC(CC)CCCC (stereo not shown) [Di(2-ethylhexyl)phtalate] | <0.001 | – | – | –
CCCCOC(=O)c1ccccc1C(=O)OCc1ccccc1 [benzyl n-butyl phthalate] | – | 100 | – | –
O=C(O)c1ccccc1C(=O)O [Phthalic acid] | <0.001 | – | – | –
nonylphenol | – | 3.4 | – | Cross-reactivity (antiserum RY850): 2.3%
CCOC=O [Ethyl formate] | 0.018 | – | 3.001226 | –
C/C(=C(/C)c1ccc(O)cc1)c1ccc(O)cc1 [Dimethyl stilbestrol] | <0.001 | – | – | Cross-reactivity ([1]; listed as dimethyl stilbestrol): does not show substantial cross-reactivity
CC/C(=C(/CC)c1ccc(O)cc1)c1ccc(O)cc1 [diethyl stilbestrol] | – | 1.5 | – | –
CCOC(=O)c1ccccc1C(=O)OCC [Diethyl phthalate] | 100 | 4 | 0.000546 (≈ 0.00246 µM) | Cross-reactivity ([1]; listed as diethyl phthalate): high reactivity
CCOC(=O)c1ccccc1 [Ethyl benzoate] | 0.012 | – | 4.391316 (≈ 29.2 µM) | –
O=C(O)c1ccccc1 [Benzoic acid] | <0.001 | – | – | Cross-reactivity ([1]; listed as benzoic acid): less than 0.001%
CCOC(C)=O [Ethyl acetate] | 0.012 | – | 4.480033 | –
COC(=O)c1ccccc1C(=O)OC [Dimethyl phthalate] | 0.556 | 1.2 | 0.098178 (≈ 0.506 µM) | Cross-reactivity ([1]; listed as dimethyl phthalate): about 0.56%
CCCCOC(=O)c1ccccc1C(=O)OCCCC [Dibutyl phthalate] | 0.014 | – | 3.893432 (≈ 14 µM) | Cross-reactivity ([1]; listed as dibutyl phthalate): about 0.01%; Cross-reactivity (antiserum RY850): 38.9%
